{
  "source": "patent US9040106B2",
  "about": "“Pharmaceutical composition for preventing or treating diabetic erectile dysfunction comprising C3G or extract of mulberry containing C3G” (CATHOLIC UNIVERSITY INDUSTRY-ACADEMIC COOPERATION FOUNDATION, priority 2011, dated 2015)",
  "type_in_all_cases": "in vivo, Sprague-Dawley rats",
  "key": {"[1]": {"tested_on": "rat model of diabetic erectile dysfunction", "assay": "Intracavernosal pressure measurement on electrical stimulation of the cavernosal nerve", "conditions": "diabetic rats, daily oral C3G 10 mg/kg for 8 weeks", "protocol": "(§1) Thirty-six 12-wk-old male Sprague-Dawley rats were treated under a protocol approved by the Institutional Animal Care and Use Committee (CUMC-2010-0137-02) and handled according to NIH guidelines. Rats were divided equally into three groups (n=12 in each): control, diabetes (DM), and diabetes with C3G concentration materials treatment (DM+C3G). All rats in the DM and DM+C3G groups received a single intraperitoneal injection of streptozotosin (50 mg/kg). Blood glucose and body weight were monitored weekly and significant diabetes (serum glucose >250 mg/dl) was confirmed in all rats within 1 wk. The diabetic serum level was maintained throughout the experiment. Four weeks after the induction of diabetes, rats in the DM+C3G group were treated with daily oral C3G (10 mg/kg) dissolved in water for 8 weeks. After the 12 weeks, intracavernosal pressure measurement (ICP) was performed, and after ICP measurement, the skin-denuded middle part of the penile shafts was cut and fixed overnight in 10% formalin, washed, and stored in 70% alcohol at 4° C. until processed for paraffin-embedded tissue sectioning (5 μm). Tissue was stored at −80° C. until processing.\nRats were anaesthetized with an intraperitoneal injection of 0.2 mL tiletamine (Zoletil®). […] Both mean arterial pressure (MAP) and ICP were continuously monitored during electrical stimulation. […]"}, "[2]": {"assay": "Serum glucose of streptozotosin-induced diabetic rats", "conditions": "DM+C3G group", "protocol": "as §1"}, "eNOS": {"tested_on": "eNOS", "assay": "eNOS protein expression, Western blot of corporal tissue", "conditions": "C3G treatment group versus DM group, corrected against actin", "protocol": "as §1, with “After the 12 weeks, intracavernosal pressure measurement (ICP) was performed, and after ICP measurement, the skin-denuded middle part of the penile shafts was cut and fixed overnight in 10% formalin, washed, and stored in 70% alcohol at 4° C. until processed for paraffin-embedded tissue sectioning (5 μm). Tissue was stored at −80° C. until processing.” left out\n(§2) The homogenized buffer solution was placed on ice for 15 min and centrifuged at 4° C. for 13,000 rpm for 15 minutes. […] 30 μg of the quantitative protein was denatured at 95° C. for 5 min and electrophoresis was performed on a 12% discontinuous sodium dodecylsulfate-polyacrylamide gel (SDS-PAGE). […] Chemiluminescence was detected using enhanced chemiluminescence Western blotting detection reagents and densitometric assessment of the bands on the autoradiogram was performed using Bio1D software (version 97; Vilber Lourmat, France). […]"}, "nNOS": {"tested_on": "nNOS", "assay": "nNOS protein expression, Western blot of corporal tissue", "conditions": "C3G treatment group versus DM group, corrected against actin", "protocol": "as §1, with “After the 12 weeks, intracavernosal pressure measurement (ICP) was performed, and after ICP measurement, the skin-denuded middle part of the penile shafts was cut and fixed overnight in 10% formalin, washed, and stored in 70% alcohol at 4° C. until processed for paraffin-embedded tissue sectioning (5 μm). Tissue was stored at −80° C. until processing.” left out\nas §2"}, "[3]": {"tested_on": "8-OHdG in corpora tissues", "assay": "Measurement of 8-OHdG (oxidative stress) by ELISA", "conditions": "diabetic rats, daily oral C3G 10 mg/kg for 8 weeks; DM 0.917±0.247, normal 0.140±0.13", "protocol": "as §1, with “After the 12 weeks, intracavernosal pressure measurement (ICP) was performed, and after ICP measurement, the skin-denuded middle part of the penile shafts was cut and fixed overnight in 10% formalin, washed, and stored in 70% alcohol at 4° C. until processed for paraffin-embedded tissue sectioning (5 μm). Tissue was stored at −80° C. until processing.” left out\nOxidative stress in corpora tissues was evaluated by quantifying the levels of 8-hydroxy-2-deoxyguanosine (8-OHdG) as oxidatively modified DNA. […] Levels of 8-OHdG were measured with a DNA oxidation kit (Highly Sensitive 8-OHdG Check ELISA; Japan Institute for the Control of Aging, Fukuroi, Japan) according to the manufacturer's protocol. […] After the final color was developed with the addition of 3,3′,5,5′-tetramethylbenzidine, absorbance was measured at 450 nm. Tissue sample concentration was calculated from a standard curve and was corrected for DNA concentration."}, "[4]": {"tested_on": "apoptosis in corporal tissue", "assay": "TUNEL assay for apoptosis", "conditions": "diabetic rats, daily oral C3G 10 mg/kg for 8 weeks; DM 39.6±4.6, control 15.3±3.0", "protocol": "as §1, with “After the 12 weeks, intracavernosal pressure measurement (ICP) was performed, and after ICP measurement, the skin-denuded middle part of the penile shafts was cut and fixed overnight in 10% formalin, washed, and stored in 70% alcohol at 4° C. until processed for paraffin-embedded tissue sectioning (5 μm). Tissue was stored at −80° C. until processing.” left out\nTo assess apoptosis in the corpora tissues, the terminal deoxynucleotidyl transferase mediated dUTP nick end labeling (TUNEL) assay was performed using Apop Tag In Situ Apoptosis Detection Kits (Millipore Co., MA, US). […] The number of cells positive for the TUNEL assay was counted and the difference among the groups was assessed. For the count of cells positive for the TUNEL assay, 5 sites were selected randomly from a slide of each group, and the number of cells positive for the TUNEL assay was counted as the average of 5 sites under a light microscope at 400× magnification."}, "[5]": {"tested_on": "smooth muscle and collagen in corporal tissue", "assay": "Masson's trichrome staining of cavernosal tissue", "protocol": "as §1\nAfter ICP, the skin denuded middle part of the penile shafts were fixed overnight in 10% formalin, washed, and stored in 70% alcohol at 4° C. until processed for paraffin-embedded tissue sectioning (5 μm). The cavernosal tissue was obtained for the Masson's trichrome staining. After staining, the color distribution of the muscle tissue was approximated by using the Adobe Photoshop CS 8.0. After the entire color distribution of the image was calculated, we selected the muscle tissue distribution, expressed as the color red. There were somewhat standard deviations in our calculation because of color overlays and ambiguity of the color spectrum of the muscle tissues."}, "SOD": {"tested_on": "SOD", "assay": "SOD protein expression, Western blot of corporal tissue", "conditions": "DM group treated with C3G", "protocol": "as §1, with “After the 12 weeks, intracavernosal pressure measurement (ICP) was performed, and after ICP measurement, the skin-denuded middle part of the penile shafts was cut and fixed overnight in 10% formalin, washed, and stored in 70% alcohol at 4° C. until processed for paraffin-embedded tissue sectioning (5 μm). Tissue was stored at −80° C. until processing.” left out\nThe homogenized buffer solution was placed on ice for 15 min and centrifuged at 4° C. for 13,000 rpm for 15 minutes. […] 30 μg of the quantitative protein was denatured at 95° C. for 5 min and electrophoresis was performed on a 12% discontinuous sodium dodecylsulfate-polyacrylamide gel (SDS-PAGE). […] Chemiluminescence was detected using enhanced chemiluminescence Western blotting detection reagents and densitometric assessment of the bands on the autoradiogram was performed using Bio1D software (version 97; Vilber Lourmat, France)."}, "[6]": {"conditions": "C3G treatment group versus DM group"}},
  "data": [
    {"compound": "OC[C@H]1O[C@@H](Oc2cc3c(O)cc(O)cc3[o+]c2-c2ccc(O)c(O)c2)[C@H](O)[C@@H](O)[C@@H]1O", "note": "[C3G, Cyanidin-3-O-β-d-glucopyranoside]", "values": [
      {"measurement": "ICP/MAP ratio", "setting": "[1]; DM group 0.32 ± 0.06, control 0.77 ± 0.05", "value": "0.55 ± 0.11"},
      {"measurement": "Peak ICP", "setting": "[1]; cavernosal nerve stimulation, DM group 35.4 ± 4.5, control 83.3 ± 1.9", "value": "58.0 ± 4.6"},
      {"measurement": "Serum glucose", "setting": "[2]; 4 wk after diabetes induction (start of daily oral C3G 10 mg/kg)", "value": "462 ± 90", "unit": "mg/dL"},
      {"measurement": "Serum glucose", "setting": "[2]; 8 wk, daily oral C3G 10 mg/kg from week 4", "value": "448 ± 143", "unit": "mg/dL"},
      {"measurement": "Serum glucose", "setting": "[2]; 12 wk, daily oral C3G 10 mg/kg for 8 weeks", "value": "469 ± 163", "unit": "mg/dL"},
      {"measurement": "Serum glucose", "setting": "[2]; Pre-DM induction (before C3G treatment)", "value": "141 ± 13", "unit": "mg/dL"},
      {"measurement": "eNOS protein level (western blot, densitogram)", "setting": "eNOS", "value": "levels increased"},
      {"measurement": "nNOS protein level (western blot, densitogram)", "setting": "nNOS", "value": "levels increased"},
      {"measurement": "8-OHdG in the corpora tissue by ELISA", "setting": "[3]", "value": "0.626±0.423"},
      {"measurement": "mean apoptotic index ± standard deviation (TUNEL)", "setting": "[4]", "value": "21.3±1.7"},
      {"measurement": "collagen content of corpora tissues", "setting": "[5]; [6]", "value": "collagen content decreased"},
      {"measurement": "smooth muscle content of corpora tissues", "setting": "[5]; [6]", "value": "smooth muscle content increased"},
      {"measurement": "muscle/collagen ratio", "setting": "[5]; diabetic rats, daily oral C3G 10 mg/kg for 8 weeks, DM 10.6±4.6, control 27.3±3.0", "value": "21.8±1.7"},
      {"measurement": "SOD expression (western blot)", "setting": "SOD", "value": "expressed more in the DM group treated with C3G than in the control group"}
    ]}
  ]
}
